The text below walks through data of US20230015478A1, “GLP-1 RECEPTOR AGONISTS HAVING IMPROVED PHARMACOLOGICAL AND DRUG DELIVERY PROPERTIES” (priority 2021, published 2023).

The term EC50 denotes the concentration at which the effect is half-maximal. A high value points to weaker potency.

Numbered stars: 1 amine (or outer) side, 2 acyl side, 3 side chain; on linkers, the order of the positions; unused ones are H or OH. Square brackets hold non-standard residues; d marks the D form. Side chains are listed from the residue outwards. Peptide text beside a SMILES is read from it. * marks the point of attachment. Dap(Nα-HOOC(CH2)16CO)OH = O=C(O)CCCCCCCCCCCCCCCCC(=O)N[C@@H](CN*)C(=O)O; Bip = N[C@@H](Cc1ccc(-c2ccccc2)cc1)C(=O)O; C18 diacid = O=C(O)CCCCCCCCCCCCCCCCC(=O)*; X2 = O=C(CCc1ccc(I)cc1)N[C@@H](CN*)C(=O)O; αMePhe(2-F) = C[C@](N)(Cc1ccccc1F)C(=O)O; γGlu = O=C(O)[C@H](CCC(=O)[*:2])N[*:1]; hPhe = N[C@@H](CCc1ccccc1)C(=O)O; AEEA = NCCOCCOCC(=O)O; Aib = CC(C)(N)C(=O)O

The first experiment deals with T1, hGLP1 receptor (Homo sapiens, UniProt P43220).
T1 construct: expressed in transfected cells; host or cells: HEK (human embryonic kidney) cells co-expressing hGLP1 receptor and CRE-Luciferase
T1 sequence (P43220 24-463): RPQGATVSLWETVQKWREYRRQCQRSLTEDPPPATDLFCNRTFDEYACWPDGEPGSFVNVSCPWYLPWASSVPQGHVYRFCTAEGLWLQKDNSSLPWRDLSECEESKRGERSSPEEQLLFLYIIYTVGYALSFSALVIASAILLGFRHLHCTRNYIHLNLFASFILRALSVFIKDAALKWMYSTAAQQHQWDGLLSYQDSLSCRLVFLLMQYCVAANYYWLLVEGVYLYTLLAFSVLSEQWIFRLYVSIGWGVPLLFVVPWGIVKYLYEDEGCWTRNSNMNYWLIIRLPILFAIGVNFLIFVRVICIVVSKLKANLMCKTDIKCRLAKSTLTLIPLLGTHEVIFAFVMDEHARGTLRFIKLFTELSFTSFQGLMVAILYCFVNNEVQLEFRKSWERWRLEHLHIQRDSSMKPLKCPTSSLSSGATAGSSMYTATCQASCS
In words: cAMP HTRF agonist assay in HEK cells co-expressing hGLP1 receptor and CRE-Luciferase. It counts as cell-based. Particulars: cAMP EC50, nM (0.1% albumin), Table 6; 0.1% albumin. In a few lines: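 HEK cells co-expressing hGLP1R and CRE-luciferase, 1000 cells/well in DPBS with 500 μM IBMX, exposed to peptides or exendin-4 reference for 30 min; 11-point 1:3 series from top 1.0 μM. cAMP measured by HTRF (665/615 nm) after 1 h at room temperature; EC50 from 4-parameter logistic fit.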
On the technique in general: Time-resolved FRET reads energy transfer from a long-lived donor to a nearby acceptor.
For the molecule `C[C@@H](O)[C@H](NC(=O)CNC(=O)[C@H](CCC(=O)O)NC(=O)C(C)(C)NC(=O)[C@@H](N)Cc1c[nH]cn1)C(=O)N[C@@](C)(Cc1ccccc1F)C(=O)N[C@H](C(=O)N[C@@H](CO)C(=O)N[C@@H](CC(=O)O)C(=O)N[C@@H](Cc1ccc(-c2ccccc2)cc1)C(=O)N[C@@H](Cc1ccc(-c2ccccc2)cc1)C(=O)NCCOCCOCC(=O)NCCOCCOCC(=O)N[C@@H](CCCCN)C(N)=O)[C@@H](C)O` [4-30, H2N-His-Aib-Glu-Gly-Thr-α-MePhe(2F)-Thr-Ser-Asp-Bip-Bip-C(O)(AEEA)2-Lys-NH2] (H-H[Aib]EGT[αMePhe(2-F)]TSD[Bip][Bip][AEEA][AEEA]K-NH2), the response was half-maximal at 14 nM (EC50).

The molecule `C[C@@H](O)[C@H](NC(=O)CNC(=O)[C@H](CCC(=O)O)NC(=O)C(C)(C)NC(=O)[C@@H](N)Cc1c[nH]cn1)C(=O)N[C@@](C)(Cc1ccccc1F)C(=O)N[C@H](C(=O)N[C@@H](CO)C(=O)N[C@@H](CC(=O)O)C(=O)N[C@@H](Cc1ccc(-c2ccccc2)cc1)C(=O)N[C@@H](Cc1ccc(-c2ccccc2)cc1)C(=O)NCCOCCOCC(=O)NCCOCCOCC(=O)NCCOCCOCC(=O)N[C@@H](CCCCN)C(N)=O)[C@@H](C)O` [4-31, H2N-His-Aib-Glu-Gly-Thr-α-MePhe(2F)-Thr-Ser-Asp-Bip-Bip-C(O)(AEEA)3-Lys-NH2] (H-H[Aib]EGT[αMePhe(2-F)]TSD[Bip][Bip][AEEA][AEEA][AEEA]K-NH2) had an EC50 of 31.2 nM. Compared with the last molecule, the EC50 is about 2.2-fold higher. Still for that read-out and setting: under `C[C@@H](O)[C@H](NC(=O)CNC(=O)[C@H](CCC(=O)O)NC(=O)C(C)(C)NC(=O)[C@@H](N)Cc1c[nH]cn1)C(=O)N[C@@](C)(Cc1ccccc1F)C(=O)N[C@H](C(=O)N[C@@H](CO)C(=O)N[C@@H](CC(=O)O)C(=O)N[C@@H](Cc1ccc(-c2ccccc2)cc1)C(=O)N[C@@H](Cc1ccc(-c2ccccc2)cc1)C(=O)NC(C)(C)C(=O)NCC(=O)NCC(=O)N[C@@H](CCCCN)C(N)=O)[C@@H](C)O` [4-33, H2N-His-Aib-Glu-Gly-Thr-α-MePhe(2F)-Thr-Ser-Asp-Bip-Bip-Aib-(Gly)2-Lys-NH2] (H-H[Aib]EGT[αMePhe(2-F)]TSD[Bip][Bip][Aib]GGK-NH2) stands 33.7 nM. Same read-out and setting: under `C[C@@H](O)[C@H](NC(=O)CNC(=O)[C@H](CCC(=O)O)NC(=O)C(C)(C)NC(=O)[C@@H](N)Cc1c[nH]cn1)C(=O)N[C@@](C)(Cc1ccccc1F)C(=O)N[C@H](C(=O)N[C@@H](CO)C(=O)N[C@@H](CC(=O)O)C(=O)N[C@@H](Cc1ccc(-c2ccccc2)cc1)C(=O)N[C@@H](CCc1ccccc1)C(=O)NCCOCCOCC(=O)NCCOCCOCC(N)=O)[C@@H](C)O` [4-35, H2N-His-Aib-Glu-Gly-Thr-α-MePhe(2-F)-Thr-Ser-Asp-Bip-Hph-C(O)NH-RY1] (H-H[Aib]EGT[αMePhe(2-F)]TSD[Bip][hPhe][AEEA][AEEA]-NH2) stands 67.2 nM; under `C[C@@H](O)[C@H](NC(=O)CNC(=O)[C@H](CCC(=O)O)NC(=O)C(C)(C)NC(=O)[C@@H](N)Cc1c[nH]cn1)C(=O)N[C@@](C)(Cc1ccccc1F)C(=O)N[C@H](C(=O)N[C@@H](CO)C(=O)N[C@@H](CC(=O)O)C(=O)N[C@@H](Cc1ccc(-c2ccccc2)cc1)C(=O)N[C@@H](CCc1ccccc1)C(=O)NCCOCCOCC(=O)NCCOCCOCC(=O)NC[C@H](NC(=O)CCCCCCCCCCCCCCCCC(=O)O)C(=O)O)[C@@H](C)O` [4-36, H2N-His-Aib-Glu-Gly-Thr-α-MePhe(2-F)-Thr-Ser-Asp-Bip-Hph-C(O)NH-RY2] (H-H[Aib]EGT[αMePhe(2-F)]TSD[Bip][hPhe][AEEA][AEEA]-{Dap(Nα-HOOC(CH2)16CO)OH}), 70.9 nM.

As to `C[C@@H](O)[C@H](NC(=O)CNC(=O)[C@H](CCC(=O)O)NC(=O)C(C)(C)NC(=O)[C@@H](N)Cc1c[nH]cn1)C(=O)N[C@@](C)(Cc1ccccc1F)C(=O)N[C@H](C(=O)N[C@@H](CO)C(=O)N[C@@H](CC(=O)O)C(=O)N[C@@H](Cc1ccc(-c2ccccc2)cc1)C(=O)N[C@@H](Cc1ccc(-c2ccccc2)cc1)C(=O)N[C@@H](CCCCNC(=O)COCCOCCNC(=O)CC[C@H](NC(=O)CCCCCCCCCCCCCCCCC(=O)O)C(=O)O)C(N)=O)[C@@H](C)O` [4-48, H2N-His-Aib-Glu-Gly-Thr-α-MePhe(2-F)-Thr-Ser-Asp-Bip-Bip-C(0)NH-RY10] (H-H[Aib]EGT[αMePhe(2-F)]TSD[Bip][Bip]K([AEEA-γGlu-C18 diacid])-NH2), the EC50 turned out to be 9.7 nM. The same measure, in the same setting: under `C[C@@H](O)[C@H](NC(=O)CNC(=O)[C@H](CCC(=O)O)NC(=O)C(C)(C)NC(=O)[C@@H](N)Cc1c[nH]cn1)C(=O)N[C@@](C)(Cc1ccccc1F)C(=O)N[C@H](C(=O)N[C@@H](CO)C(=O)N[C@@H](CC(=O)O)C(=O)N[C@@H](Cc1ccc(-c2ccccc2)cc1)C(=O)N[C@@H](Cc1ccc(-c2ccccc2)cc1)C(=O)N[C@@H](CCCCNC(=O)COCCOCCNC(=O)COCCOCCNC(=O)CC[C@H](NC(=O)CCCCCCCCCCCCCCCCC(=O)O)C(=O)O)C(N)=O)[C@@H](C)O` [4-49, H2N-His-Aib-Glu-Gly-Thr-α-MePhe(2-F)-Thr-Ser-Asp-Bip-Bip-C(O)NH-RY11] (H-H[Aib]EGT[αMePhe(2-F)]TSD[Bip][Bip]K([AEEA-AEEA-γGlu-C18 diacid])-NH2) stands 5 nM; under `C[C@@H](O)[C@H](NC(=O)CNC(=O)[C@H](CCC(=O)O)NC(=O)C(C)(C)NC(=O)[C@@H](N)Cc1c[nH]cn1)C(=O)N[C@@](C)(Cc1ccccc1F)C(=O)N[C@H](C(=O)N[C@@H](CO)C(=O)N[C@@H](CC(=O)O)C(=O)N[C@@H](Cc1ccc(-c2ccccc2)cc1)C(=O)N[C@@H](Cc1ccc(-c2ccccc2)cc1)C(=O)N[C@@H](CCCCNC(=O)COCCOCCNC(=O)COCCOCCNC(=O)COCCOCCNC(=O)CC[C@H](NC(=O)CCCCCCCCCCCCCCCCC(=O)O)C(=O)O)C(N)=O)[C@@H](C)O` [4-50, H2N-His-Aib-Glu-Gly-Thr-α-MePhe(2-F)-Thr-Ser-Asp-Bip-Bip-C(O)NH-RY12] (H-H[Aib]EGT[αMePhe(2-F)]TSD[Bip][Bip]K([AEEA-AEEA-AEEA-γGlu-C18 diacid])-NH2), 12 nM. On the same count and under the same terms, as for `C[C@@H](O)[C@H](NC(=O)CNC(=O)[C@H](CCC(=O)O)NC(=O)C(C)(C)NC(=O)[C@@H](N)Cc1c[nH]cn1)C(=O)N[C@@](C)(Cc1ccccc1F)C(=O)N[C@H](C(=O)N[C@@H](CO)C(=O)N[C@@H](CC(=O)O)C(=O)N[C@@H](Cc1ccc(-c2ccccc2)cc1)C(=O)N[C@@H](Cc1ccc(-c2ccccc2)cc1)C(=O)NCCOCCOCC(=O)NCCOCCOCC(=O)NCCOCCOCC(=O)N[C@@H](CCCCN)C(N)=O)[C@@H](C)O` [4-57, H2N-His-Aib-Glu-Gly-Thr-α-MePhe(2-F)-Thr-Ser-Asp-Bip-Bip-C(O)NH-RY13] (H-H[Aib]EGT[αMePhe(2-F)]TSD[Bip][Bip][AEEA][AEEA][AEEA]K-NH2), the figure is 14 nM.

Staying with this experiment, now noted: relative to parent 1-4.
With `C[C@@H](O)[C@H](NC(=O)CNC(=O)[C@H](CCC(=O)O)NC(=O)C(C)(C)NC(=O)[C@@H](N)Cc1c[nH]cn1)C(=O)N[C@@](C)(Cc1ccccc1F)C(=O)N[C@H](C(=O)N[C@@H](CO)C(=O)N[C@@H](CC(=O)O)C(=O)N[C@@H](Cc1ccc(-c2ccccc2)cc1)C(=O)N[C@@H](CCc1ccccc1)C(=O)NCCOCCOCC(=O)NCCOCCOCC(=O)NC[C@H](NC(=O)CCCCCCCCCCCCCCCCC(=O)O)C(=O)O)[C@@H](C)O` [4-36, H2N-His-Aib-Glu-Gly-Thr-α-MePhe(2-F)-Thr-Ser-Asp-Bip-Hph-C(O)NH-RY2] (H-H[Aib]EGT[αMePhe(2-F)]TSD[Bip][hPhe][AEEA][AEEA]-{Dap(Nα-HOOC(CH2)16CO)OH}), the “fold lower potency than the parent peptide (1-4)” value was determined as 15 fold. `C[C@@H](O)[C@H](NC(=O)CNC(=O)[C@H](CCC(=O)O)NC(=O)C(C)(C)NC(=O)[C@@H](N)Cc1c[nH]cn1)C(=O)N[C@@](C)(Cc1ccccc1F)C(=O)N[C@H](C(=O)N[C@@H](CO)C(=O)N[C@@H](CC(=O)O)C(=O)N[C@@H](Cc1ccc(-c2ccccc2)cc1)C(=O)N[C@@H](CCc1ccccc1)C(=O)NCCOCCOCC(=O)NCCOCCOCC(=O)NCCOCCOCC(=O)NC[C@H](NC(=O)CCc1ccc(I)cc1)C(=O)O)[C@@H](C)O` [4-37, H2N-His-Aib-Glu-Gly-Thr-α-MePhe(2-F)-Thr-Ser-Asp-Bip-Hph-C(O)NH-RY3] (H-H[Aib]EGT[αMePhe(2-F)]TSD[Bip][hPhe][AEEA][AEEA][AEEA]-X2): the “fold lower potency than the parent peptide (1-4)” value is recorded as “equipotency”.
